Results: patent EP1020531A2, “Use of spore adhesion assays in fungicide screening” (priority 1999, dated 2000)
In brackets after ≈: the same amount, converted by molar mass.

System: Botrytis cinerea spores
Assay: Spore adhesion assay in polystyrene counting vials (Coulter Counter)
Type: cell-based
Details: Botrytis cinerea, 25°C, 5.5 h, read-out: Inhn. of Spore Adhesion (EC50, ppm) Counting vials
Method: (§1) Botrytis cinerea was grown at room temperature under fluorescent lights on potato dextrose agar (PDA), and subcultured every 14 days. To prepare spore suspensions, 20 ml sterile milliQ™ water was added to plates (10-14 days old) and the surface scraped gently with a sterile loop. The fluid was filtered through glass wool to remove mycelial fragments, then the spore density was adjusted to the desired concentration.
Various fungicides were evaluated for their abilities to inhibit germination-associated spore adhesion to polystyrene counting vials, polymethylpentene (Permanox®) chamber slides and 96-well flat-bottomed polystyrene microtiter plates, and for their effects on spore germination and mycelial growth (table below). Adhesion assays in chamber slides and germination assays were performed as in Example 1 with incubation at 25°C for 5.5 h. Adhesion assays in counting vials were conducted in 20 ml capacity polystyrene counting vials (VWR cat. no. 14310-640). Counting vials received 5 µl of DMSO (controls) or test compound dissolved in DMSO, followed by 500 µl of SDB. Aqueous spore suspension (500 µl) at 200,000 spores/ml was added, mixed gently and the vials or slides incubated at 25°C for 5.5 h. To determine the numbers of unbound spores 15 ml of counting fluid was added, vials were capped and inverted gently 5 times, then counted using a Coulter Counter®.

First: N#Cc1c[nH]cc1-c1cccc(Cl)c1Cl [Fenpiclonil]
Second: O=C1c2ccccc2C(=O)N1SC(Cl)(Cl)Cl [Folpet]
The EC50 of the first is 2.2-fold lower: 0.096 µg/mL (≈ 0.405 µM) for the first, 0.21 µg/mL (≈ 0.708 µM) for the second.

First: Cc1cc(C)nc(Nc2ccccc2)n1 [Pyrimethanil]
Second: C=CC1(C)OC(=O)N(c2cc(Cl)cc(Cl)c2)C1=O (stereo not shown) [Vinclozolin]
The EC50 of the first is higher: greater than 25 µg/mL for the first, 0.56 µg/mL (≈ 1.96 µM) for the second.

Work on `CN(C)C(=S)SSC(=S)N(C)C` [Thiram] yielded an EC50 of 1.04 µg/mL (≈ 4.33 µM).

System: Botrytis cinerea spores
Assay: Spore germination assay (microscopic examination)
Type: cell-based
Details: Botrytis cinerea; 25°C, 5.5 h; read-out: Inhn. of Germination EC50 (ppm)

Compared with `N#Cc1c[nH]cc1-c1cccc(Cl)c1Cl` [Fenpiclonil], `O=C1c2ccccc2C(=O)N1SC(Cl)(Cl)Cl` [Folpet] is higher in EC50: less than 0.0312 µg/mL for the first, 0.15 µg/mL (≈ 0.506 µM) for the second.

Going from `Cc1cc(C)nc(Nc2ccccc2)n1` [Pyrimethanil] to `C=CC1(C)OC(=O)N(c2cc(Cl)cc(Cl)c2)C1=O` (stereo not shown) [Vinclozolin], the EC50 falls from 8.6 µg/mL (≈ 43.2 µM) to less than 0.5 µg/mL.

Compound `CN(C)C(=S)SSC(=S)N(C)C` [Thiram] has an EC50 of less than 0.625 µg/mL.

System: Botrytis
Assay: Mycelial growth inhibition, poison agar assay
Details: Botrytis, 72 h, read-out: Mycelial Growth Inhn. EC50 (ppm)
Method: Inhibition of mycelial growth was evaluated in poison agar assays. A 4-fold dilution series of each fungicide to be tested was prepared in DMSO and 125 µl of each dilution was added to 25 ml of molten malt extract agar (20 g malt extract, 20 g glucose, 1 g peptone and 20 g agar per liter). The medium containing test compound was poured immediately into 9 cm diameter petri dishes. Two replicate plates were used for each treatment. Each plate was inoculated with a 7 mm diameter plug taken from the growing edge of a Botrytis culture on PDA. Colony diameters were measured after growth for 3 days in the dark at 25°C. EC50 values were determined from dose-response curves.

Going from `N#Cc1c[nH]cc1-c1cccc(Cl)c1Cl` [Fenpiclonil] to `O=C1c2ccccc2C(=O)N1SC(Cl)(Cl)Cl` [Folpet], the EC50 rises from 0.0015 µg/mL (≈ 0.00633 µM) to 5.5 µg/mL (≈ 18.5 µM) (3700-fold).

First: Cc1cc(C)nc(Nc2ccccc2)n1 [Pyrimethanil]
Second: C=CC1(C)OC(=O)N(c2cc(Cl)cc(Cl)c2)C1=O (stereo not shown) [Vinclozolin]
The EC50 of the first is 4.4-fold higher: 0.48 µg/mL (≈ 2.41 µM) for the first, 0.11 µg/mL (≈ 0.384 µM) for the second.

`CN(C)C(=S)SSC(=S)N(C)C` [Thiram] showed an EC50 of 0.78 µg/mL (≈ 3.24 µM).

System: Botrytis cinerea spores
Assay: Spore adhesion assay in 96-well polystyrene microtiter plates (sulforhodamine B)
Type: cell-based
Details: Botrytis cinerea, 25°C, 5.5 hours, read-out: Inhn. of Spore Adhesion (EC50, ppm) Microtiter plates
Method: as §1
For adhesion assays in microtiter plates, stock solutions of test compounds were prepared in DMSO then diluted in SDB such that the DMSO concentration after dilution was ≤2%. Two-fold serial dilutions of these test compound solutions were made in SDB (100 µl) in 96-well flat-bottomed microtiter plates. Spore suspension (100 µl at 2X10^5 spores/ml) was added to the wells, and the plates were incubated at 25°C for 5.5 hours. The medium containing unbound spores was removed by inverting and flicking the microtiter plate to remove as much liquid as possible.

Compared with `N#Cc1c[nH]cc1-c1cccc(Cl)c1Cl` [Fenpiclonil], `O=C1c2ccccc2C(=O)N1SC(Cl)(Cl)Cl` [Folpet] is 3.7-fold higher in EC50: 0.09 µg/mL (≈ 0.38 µM) for the first, 0.33 µg/mL (≈ 1.11 µM) for the second.

Going from `Cc1cc(C)nc(Nc2ccccc2)n1` [Pyrimethanil] to `C=CC1(C)OC(=O)N(c2cc(Cl)cc(Cl)c2)C1=O` (stereo not shown) [Vinclozolin], the EC50 falls from greater than 10 µg/mL to 0.62 µg/mL (≈ 2.17 µM).

With `CN(C)C(=S)SSC(=S)N(C)C` [Thiram] the EC50 was 1.86 µg/mL (≈ 7.74 µM).

System: Candida albicans
Assay: not given
Details: dacron fibers; Vuddhakel et al. (1988); cited from earlier work

In the case of `CCC(C)(C)c1ccc(CC(C)CN2C[C@@H](C)O[C@@H](C)C2)cc1` (stereo partly shown) [amorolfine], the Candida adherence is listed as “inhibit Candida adherence”.

System: Puccinia recondita
Assay: Germination-associated spore adhesion assay in microtiter plates (sulforhodamine B)
Type: cell-based
Details: inhibition of adhesion, 0.05% Tween 20, 19°C, 4 hours

Going from `CC1=C(C(=O)Nc2ccccc2)SCCO1` [carboxin] to `N#CC(CCc1ccc(Cl)cc1)(Cn1cncn1)c1ccccc1` (stereo not shown) [fenbuconazole], the “EC50 (ppm)” value rises from 0.081 ppm to 9.2 ppm.

With `Cc1nc(C(F)(F)F)c(C(=O)Nc2c(Br)cc(OC(F)(F)F)cc2Br)s1` [thifluzamide] the “EC50 (ppm)” value was 0.043 ppm.

For `CCCCC(C#N)(Cn1cncn1)c1ccc(Cl)cc1` (stereo not shown) [myclobutanil], the “EC50 (ppm)” value was greater than 10 ppm.

Same assay, conditions: statement in words

With `CC1=C(C(=O)Nc2ccccc2)SCCO1` [carboxin] the “inhibition of germination-associated adhesion” value (“inhibition” for short) was “inhibited germination-associated adhesion”.
In the case of `N#CC(CCc1ccc(Cl)cc1)(Cn1cncn1)c1ccccc1` (stereo not shown) [fenbuconazole], the “inhibition” value is reported as “little or no activity”.
With `CCCCC(C#N)(Cn1cncn1)c1ccc(Cl)cc1` (stereo not shown) [myclobutanil] the “inhibition” value was “little or no activity”.
In the case of `Cc1nc(C(F)(F)F)c(C(=O)Nc2c(Br)cc(OC(F)(F)F)cc2Br)s1` [thifluzamide], the “inhibition” value is reported as “inhibited germination-associated adhesion”.

System: Botrytis cinerea spores
Assay: microbe, parasite or virus in culture
Type: cell-based
Details: Botrytis cinerea, 5.5 h, read-out: Inhn. of Spore Adhesion (EC50, ppm) Chamber Slides

Going from `N#Cc1c[nH]cc1-c1cccc(Cl)c1Cl` [Fenpiclonil] to `O=C1c2ccccc2C(=O)N1SC(Cl)(Cl)Cl` [Folpet], the EC50 falls from 1.89 µg/mL (≈ 7.97 µM) to 0.22 µg/mL (≈ 0.742 µM) (8.6-fold).

`Cc1cc(C)nc(Nc2ccccc2)n1` [Pyrimethanil] and `C=CC1(C)OC(=O)N(c2cc(Cl)cc(Cl)c2)C1=O` (stereo not shown) [Vinclozolin] cannot be ordered by EC50: greater than 25 µg/mL for the first, greater than 5 µg/mL for the second.

`CN(C)C(=S)SSC(=S)N(C)C` [Thiram] gave an EC50 of 1.87 µg/mL (≈ 7.78 µM).
